ChEMBL document CHEMBL5143721, “Novel Hydroxychalcone-Based Dual Inhibitors of Aldose Reductase and α-Glucosidase as Potential Therapeutic Agents against Diabetes Mellitus and Its Complications” (J Med Chem, 2022)

Legend:
[1] = Inhibition of Wistar rat lens ALR2 using D,L-glyceraldehyde as substrate preincubated for 10 mins in presence of NADPH followed by substrate addition and measured after 4 mins; type: tissue-based
[2] = Inhibition of Wistar rat kidney ALR1 using sodium D-glucuronate as substrate preincubated for 10 mins in presence of NADPH followed by substrate addition and measured after 4 mins; type: tissue-based
[3] = Antioxidant activity assessed as DPPH radical scavenging activity at 100 uM incubated for 30 mins by DPPH assay relative to control; type: functional
[4] = Inhibition of Saccharomyces cerevisiae Alpha-glucosidase using p-nitrophenyl glucopyranoside as substrate preincubated for 5 mins followed by substrate addition and measured for 30 mins
Rattus norvegicus [5] = organism: Rattus norvegicus; experiment: Selectivity index, ratio of IC50 for Wistar rat kidney ALR1 to IC50 for Wistar rat lens ALR2
[6] = Antioxidant activity assessed as DPPH radical scavenging activity at 50 uM incubated for 30 mins by DPPH assay relative to control; type: functional
[7] = Antioxidant activity assessed as DPPH radical scavenging activity at 10 uM incubated for 30 mins by DPPH assay relative to control; type: functional
Brain [8] = experiment: Antioxidant activity in rat brain homogenate assessed as inhibition of lipid peroxidation by measuring MDA concentration at 100 uM by TBARS assay relative to control; type: functional, tissue-based; set-up: scale not given: the % may be the effect or the level left
Brain [9] = experiment: Antioxidant activity in rat brain homogenate assessed as inhibition of lipid peroxidation by measuring MDA concentration at 50 uM by TBARS assay relative to control; type: functional, tissue-based; set-up: scale not given: the % may be the effect or the level left
[10] = Octanol/buffer distribution coefficient, log D of compound at pH 7.4 incubated for 24 hrs by shake flask based HPLC method; type: physicochemical
[11] = Antioxidant activity assessed as DPPH radical scavenging activity at 5 uM incubated for 30 mins by DPPH assay relative to control; type: functional
[12] = Antioxidant activity assessed as DPPH radical scavenging activity at 1 uM incubated for 30 mins by DPPH assay relative to control; type: functional
Brain [13] = experiment: Antioxidant activity in rat brain homogenate assessed as inhibition of lipid peroxidation by measuring MDA concentration at 10 uM relative to control; type: functional, tissue-based; set-up: scale not given: the % may be the effect or the level left
Brain [14] = experiment: Antioxidant activity in rat brain homogenate assessed as inhibition of lipid peroxidation by measuring MDA concentration at 1 uM by TBARS assay relative to control; type: functional, tissue-based; set-up: scale not given: the % may be the effect or the level left
Brain [15] = experiment: Antioxidant activity in rat brain homogenate assessed as inhibition of lipid peroxidation by measuring MDA concentration at 5 uM by TBARS assay relative to control; type: functional, tissue-based; set-up: scale not given: the % may be the effect or the level left
Rattus norvegicus [16] = organism: Rattus norvegicus; experiment: Non competitive inhibition of Wistar rat lens ALR2 using D,L-glyceraldehyde as substrate up to 200 uM by Lineweaver-Burk plot analysis; type: tissue-based
Saccharomyces cerevisiae = experiment: Non competitive inhibition of Saccharomyces cerevisiae alpha-glucosidase using p-nitrophenyl glucopyranoside as substrate up to 200 uM by Lineweaver-Burk plot analysis
Rattus norvegicus [17] = experiment: Antidiabetic activity against STZ-induced diabetic Sprague-Dawley rat model assessed as reduction in fasting blood glucose level at 100 mg/kg, IG administered once daily for 28 days; type: functional; set-up: scale not given: the % may be the effect or the level left; conditions: time 28 day

| Structure (SMILES) | IC50 [1] | IC50 [2] | IC50 [4] | Ratio IC50 (Rattus norvegicus [5]) | Activity [7] | Activity (Brain [8]) | Activity (Brain [9]) | also measured |
| --- | --- | --- | --- | --- | --- | --- | --- | --- |
| COC(=O)Cn1c(=O)oc2c(C(=O)/C=C/c3ccc(O)c(F)c3)cccc21 | 0.518 µM | > 100 µM | 57.2 µM | > 193 | 5.09% | 40.1% | 25.4% | Activity [3]: 40.1%; Activity [6]: 19.2%; logD at 24 h [10]: 1.31 |
| COC(=O)Cn1c(=O)oc2c(C(=O)/C=C/c3ccc(O)c(OC)c3)cccc21 | 13.2 µM | > 100 µM | – | > 7.59 | 50.3% | 66.1% | 43% | Activity [3]: 92.4%; Activity [6]: 82.2%; Activity [11]: 25.4%; Activity [12]: 14.8%; Activity (Brain [13]): 23.6% |
| O=C(/C=C/c1cccc(O)c1)c1cccc2[nH]c(=O)oc12 | > 100 µM | > 100 µM | – | – | – | – | – | – |
| CC(C)=CCCn1c(=O)oc2c(C(=O)/C=C/c3ccc(O)c(O)c3)cccc21 | 0.13 µM | 10.3 µM | 4.13 µM | 79.3 | 94.4% | 96.4% | 92.5% | Activity (Brain [14]): 34.2%; Activity [3]: 98.5%; Activity [6]: 97%; Activity [11]: 89.8%; Activity [12]: 44.7%; Activity (Brain [15]): 63.2%; Km (Rattus norvegicus [16]): 585 µM; Km (Saccharomyces cerevisiae): 449 µM; logD at 24 h [10]: 1.04; Activity (Brain [13]): 73% |
| Cc1c(C)c2c(c(C)c1O)CCC(C)(C(=O)O)O2 (stereo not drawn) | – | – | – | – | 86.3% | 79.2% | 47.5% | Activity (Brain [14]): 3.39%; Activity [11]: 46.7%; Activity [12]: 8.63%; Activity (Brain [15]): 15.5%; Activity (Brain [13]): 31.9% |
| O=C(/C=C/c1ccc(O)c(Cl)c1)c1cccc2[nH]c(=O)oc12 | > 100 µM | > 100 µM | – | – | – | – | – | – |
| CN(C)C(=N)NC(=N)N [METFORMIN] | – | – | – | – | – | – | – | Activity (Rattus norvegicus [17]): 38.5% |
| O=C(/C=C/c1ccc(O)c(C(F)(F)F)c1)c1cccc2[nH]c(=O)oc12 | > 100 µM | > 100 µM | – | – | – | – | – | – |

Second part, led by results:

| IC50 [1] | IC50 [2] | IC50 [4] | Ratio IC50 (Rattus norvegicus [5]) | Structure (SMILES) | Activity [7] | Activity (Brain [8]) | Activity (Brain [9]) | also measured |
| --- | --- | --- | --- | --- | --- | --- | --- | --- |
| 495 µM | – | – | – | O=c1[nH]c2cccc(/C=C/c3ccc(O)cc3)c2o1 | – | – | – | – |
| 0.517 µM | > 100 µM | 52.1 µM | > 193 | CC(C)=CCn1c(=O)oc2c(C(=O)/C=C/c3ccc(O)c(F)c3)cccc21 | 12.7% | 33.3% | 22.4% | Activity [3]: 53.8%; Activity [6]: 32.5%; logD at 24 h [10]: 1.64 |
| 72.2 µM | – | – | – | COC(=O)Cn1c(=O)oc2cc(/C=C/c3ccc(O)cc3)ccc21 | – | – | – | – |
| > 100 µM | > 100 µM | – | – | COc1cc(/C=C/C(=O)c2cccc3[nH]c(=O)oc23)ccc1O | – | – | – | – |
| 0.826 µM | > 100 µM | – | > 121 | COC(=O)Cn1c(=O)oc2c(C(=O)/C=C/c3ccc(O)cc3OC)cccc21 | – | – | – | – |
| 3.54 µM | 2.12 µM | 63.7 µM | 0.595 | O=C(/C=C/c1ccc(O)c(O)c1)c1cccc2[nH]c(=O)oc12 | – | – | – | – |
| 0.491 µM | 1.41 µM | 107 µM | 2.87 | O=C(/C=C/c1cc(F)c(O)c(F)c1)c1cccc2[nH]c(=O)oc12 | – | – | – | – |
